Test results published in PubChem BioAssay AID2060909 (Molecular Pharmacology Branch, DTP, NCI, 2025).

Tested on: 362531-283-R-J2-PDC complex spheroid viability
Experiment: Anticancer human tumor 362531-283-R-J2-PDC patient-derived colon adenocarcinoma cell line growth inhibition [RAS]
Conditions: for IC50: curve of first compound; for viability, T/C: stronger effect = lower value; active = viability on the fitted dose curve at most 10% of control; inactive = the rest
Summary of the method: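 Agents were tested in combination matrices in half-log decrements from a top concentration at or near clinical Cmax (10 microM if undetermined). Targets were multi-cell spheroids of tumour lines plus HUVEC and MSC stromal cells.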

[1] = second compound 0.0316 µM, first compound 0.000949 µM
[2] = second compound 0.0316 µM, first compound 0.003 µM
[3] = second compound 0.0316 µM, first compound 0.00949 µM
[4] = second compound 0.0316 µM, first compound 0.03 µM
[5] = second compound 0.0316 µM, first compound 0.0949 µM
[6] = second compound 0.0316 µM, first compound 0.3 µM
[7] = second compound 0.1 µM, first compound 0.000949 µM
[8] = second compound 0.1 µM, first compound 0.003 µM
[9] = second compound 0.1 µM, first compound 0.00949 µM
[10] = second compound 0.1 µM, first compound 0.03 µM
[11] = second compound 0.1 µM, first compound 0.0949 µM
[12] = second compound 0.1 µM, first compound 0.3 µM
[13] = second compound 0.316 µM, first compound 0.000949 µM
[14] = second compound 0.316 µM, first compound 0.003 µM
[15] = second compound 0.316 µM, first compound 0.00949 µM
[16] = second compound 0.316 µM, first compound 0.03 µM
[17] = second compound 0.316 µM, first compound 0.0949 µM
[18] = second compound 0.316 µM, first compound 0.3 µM
[19] = second compound 1 µM, first compound 0.000949 µM
[20] = second compound 1 µM, first compound 0.003 µM
[21] = second compound 1 µM, first compound 0.00949 µM
[22] = second compound 1 µM, first compound 0.03 µM
[23] = second compound 1 µM, first compound 0.0949 µM
[24] = second compound 1 µM, first compound 0.3 µM
[25] = second compound 3.16 µM, first compound 0.000949 µM
[26] = second compound 3.16 µM, first compound 0.003 µM
[27] = second compound 3.16 µM, first compound 0.00949 µM
[28] = second compound 3.16 µM, first compound 0.03 µM
[29] = second compound 3.16 µM, first compound 0.0949 µM
[30] = second compound 3.16 µM, first compound 0.3 µM
[31] = second compound 10 µM, first compound 0.000949 µM
[32] = second compound 10 µM, first compound 0.003 µM
[33] = second compound 10 µM, first compound 0.00949 µM
[34] = second compound 10 µM, first compound 0.03 µM
[35] = second compound 10 µM, first compound 0.0949 µM
[36] = second compound 10 µM, first compound 0.3 µM
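Also: spheroids exposed to the agents for 7 days before readout.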
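For viability, T/C in this document: luminescence viability as percent of DMSO vehicle control wells.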

C=CC(=O)N1CCN(c2nc(OCC3CCCN3C)nc3c(F)c(-c4nc(N)cc(C)c4C(F)(F)F)c(Cl)cc23)C(C)C1 (stereo unspecified) + C#Cc1c(F)ccc2cc(O)cc(-c3ncc4c(N5CC6CCC(C5)N6)nc(OCC56CCCN5CC(F)C6)nc4c3F)c12
< 3.16 nM: IC50 (second compound 10 µM)
> 1000 nM: IC50 (second compound 0.0316 µM) | IC50 (second compound 0.1 µM) | IC50 (second compound 0.316 µM) | IC50 (second compound 1 µM) | IC50 (second compound 3.16 µM)
inactive: viability, T/C (second compound 0.0316 µM, first compound 0.00316 µM) 98.1% | viability, T/C (second compound 0.0316 µM, first compound 0.01 µM) 94.4% | viability, T/C (second compound 0.0316 µM, first compound 0.0316 µM) 95.5% | viability, T/C (second compound 0.0316 µM, first compound 0.1 µM) 98.4% | viability, T/C (second compound 0.0316 µM, first compound 0.316 µM) 97.8% | viability, T/C (second compound 0.0316 µM, first compound 1 µM) 89.6% | viability, T/C (second compound 0.1 µM, first compound 0.00316 µM) 93.6% | viability, T/C (second compound 0.1 µM, first compound 0.01 µM) 93.1% | viability, T/C (second compound 0.1 µM, first compound 0.0316 µM) 97.1% | viability, T/C (second compound 0.1 µM, first compound 0.1 µM) 92.3% | viability, T/C (second compound 0.1 µM, first compound 0.316 µM) 98.7% | viability, T/C (second compound 0.1 µM, first compound 1 µM) 98.3% | viability, T/C (second compound 0.316 µM, first compound 0.00316 µM) 82.6% | viability, T/C (second compound 0.316 µM, first compound 0.01 µM) 78.6% | viability, T/C (second compound 0.316 µM, first compound 0.0316 µM) 90.9% | viability, T/C (second compound 0.316 µM, first compound 0.1 µM) 97.8% | viability, T/C (second compound 0.316 µM, first compound 0.316 µM) 89.3% | viability, T/C (second compound 0.316 µM, first compound 1 µM) 90.7% | viability, T/C (second compound 1 µM, first compound 0.00316 µM) 80.7% | viability, T/C (second compound 1 µM, first compound 0.01 µM) 74.4% | viability, T/C (second compound 1 µM, first compound 0.0316 µM) 82.7% | viability, T/C (second compound 1 µM, first compound 0.1 µM) 70.4% | viability, T/C (second compound 1 µM, first compound 0.316 µM) 82.7% | viability, T/C (second compound 1 µM, first compound 1 µM) 74.4% | viability, T/C (second compound 3.16 µM, first compound 0.00316 µM) 66.5% | viability, T/C (second compound 3.16 µM, first compound 0.01 µM) 69% | viability, T/C (second compound 3.16 µM, first compound 0.0316 µM) 71.2% | viability, T/C (second compound 3.16 µM, first compound 0.1 µM) 80.8% | viability, T/C (second compound 3.16 µM, first compound 0.316 µM) 58.1% | viability, T/C (second compound 3.16 µM, first compound 1 µM) 71.7% | viability, T/C (second compound 10 µM, first compound 0.00316 µM) 39.9% | viability, T/C (second compound 10 µM, first compound 0.01 µM) 48% | viability, T/C (second compound 10 µM, first compound 0.0316 µM) 46.7% | viability, T/C (second compound 10 µM, first compound 0.1 µM) 38.1% | viability, T/C (second compound 10 µM, first compound 0.316 µM) 49.6% | viability, T/C (second compound 10 µM, first compound 1 µM) 42.7%

CC1(C)CCC(Nc2ncc(C(F)(F)F)c(-c3c[nH]c4c(P(C)(C)=O)c(C#N)ccc34)n2)CN1 (stereo unspecified) + C#Cc1c(F)ccc2cc(O)cc(-c3ncc4c(N5CC6CCC(C5)N6)nc(OCC56CCCN5CC(F)C6)nc4c3F)c12
> 300 nM: IC50 (second compound 0.0316 µM) | IC50 (second compound 0.1 µM) | IC50 (second compound 0.316 µM) | IC50 (second compound 1 µM) | IC50 (second compound 3.16 µM) | IC50 (second compound 10 µM)
inactive: viability, T/C [1] 97% | viability, T/C [2] 95.6% | viability, T/C [3] 98.5% | viability, T/C [4] 92.3% | viability, T/C [5] 107% | viability, T/C [6] 114% | viability, T/C [7] 107% | viability, T/C [8] 85.5% | viability, T/C [9] 90.4% | viability, T/C [10] 95.8% | viability, T/C [11] 101% | viability, T/C [12] 99.5% | viability, T/C [13] 95.7% | viability, T/C [14] 88.2% | viability, T/C [15] 88.8% | viability, T/C [16] 90.2% | viability, T/C [17] 97.4% | viability, T/C [18] 93.8% | viability, T/C [19] 80.5% | viability, T/C [20] 89.3% | viability, T/C [21] 83.4% | viability, T/C [22] 93.5% | viability, T/C [23] 80.9% | viability, T/C [24] 82.9% | viability, T/C [25] 68.4% | viability, T/C [26] 65.9% | viability, T/C [27] 70.9% | viability, T/C [28] 74% | viability, T/C [29] 61.2% | viability, T/C [30] 71.1% | viability, T/C [31] 56.4% | viability, T/C [32] 49.7% | viability, T/C [33] 54.8% | viability, T/C [34] 55% | viability, T/C [35] 41.4% | viability, T/C [36] 54.3%

CCc1c2c(nc3ccc(O)cc13)-c1cc3c(c(=O)n1C2)COC(=O)[C@]3(O)CC + C#Cc1c(F)ccc2cc(O)cc(-c3ncc4c(N5CC6CCC(C5)N6)nc(OCC56CCCN5CC(F)C6)nc4c3F)c12
< 0.949 nM: IC50 (second compound 10 µM)
2.45 nM: IC50 (second compound 3.16 µM)
inactive: viability, T/C [1] 95.2% | viability, T/C [2] 91.8% | viability, T/C [3] 71.5% | viability, T/C [4] 60.6% | viability, T/C [5] 32.3% | viability, T/C [6] 18% | viability, T/C [7] 92.7% | viability, T/C [8] 85.8% | viability, T/C [9] 64.3% | viability, T/C [10] 47.2% | viability, T/C [11] 25.3% | viability, T/C [12] 21.2% | viability, T/C [13] 84.9% | viability, T/C [14] 84.3% | viability, T/C [15] 57.7% | viability, T/C [16] 40.5% | viability, T/C [17] 18.2% | viability, T/C [18] 13.9% | viability, T/C [19] 72.7% | viability, T/C [20] 76% | viability, T/C [21] 51.2% | viability, T/C [22] 30.2% | viability, T/C [23] 18.5% | viability, T/C [24] 12.1% | viability, T/C [25] 58.2% | viability, T/C [26] 50.5% | viability, T/C [27] 29% | viability, T/C [28] 19.8% | viability, T/C [29] 16.1% | viability, T/C [30] 7.69% | viability, T/C [31] 39.3% | viability, T/C [32] 26.9% | viability, T/C [33] 18.8% | viability, T/C [34] 16.2% | viability, T/C [35] 12.3%
active: viability, T/C [36] 8.32%
22.4 nM: IC50 (second compound 0.1 µM)
16.6 nM: IC50 (second compound 0.316 µM)
11.4 nM: IC50 (second compound 1 µM)
42.2 nM: IC50 (second compound 0.0316 µM)
